Assay results reported in US8962641B2, “Pyrimidine-substituted pyrrolidine derivatives, pharmaceutical compositions and uses thereof” (Boehringer Ingelheim International GmbH, priority 2013, dated 2015).

Biological target: human ACC2 (Homo sapiens (Human), UniProt O00763)
Assay: ACC2 assay (spectrophotometric 384 well assay, NADH-linked kinetic method)
Format: biochemical
Conditions: hACC2 construct lacking 128 N-terminal amino acids; coupled lactate dehydrogenase/pyruvate kinase reaction, 340 nm, 25° C.
Procedure, shortened: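 Baculovirus/insect-cell human ACC2, anion-exchange purified; ADP formation coupled to pyruvate kinase/lactate dehydrogenase, NADH loss followed at 340 nm, 25° C, 15 min. Final 200 μM NADH and acetyl-CoA, 500 uM ATP; vehicle and no-acetyl-CoA wells set 100% and 0%.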

Sequence of human ACC2 (O00763 129-2458): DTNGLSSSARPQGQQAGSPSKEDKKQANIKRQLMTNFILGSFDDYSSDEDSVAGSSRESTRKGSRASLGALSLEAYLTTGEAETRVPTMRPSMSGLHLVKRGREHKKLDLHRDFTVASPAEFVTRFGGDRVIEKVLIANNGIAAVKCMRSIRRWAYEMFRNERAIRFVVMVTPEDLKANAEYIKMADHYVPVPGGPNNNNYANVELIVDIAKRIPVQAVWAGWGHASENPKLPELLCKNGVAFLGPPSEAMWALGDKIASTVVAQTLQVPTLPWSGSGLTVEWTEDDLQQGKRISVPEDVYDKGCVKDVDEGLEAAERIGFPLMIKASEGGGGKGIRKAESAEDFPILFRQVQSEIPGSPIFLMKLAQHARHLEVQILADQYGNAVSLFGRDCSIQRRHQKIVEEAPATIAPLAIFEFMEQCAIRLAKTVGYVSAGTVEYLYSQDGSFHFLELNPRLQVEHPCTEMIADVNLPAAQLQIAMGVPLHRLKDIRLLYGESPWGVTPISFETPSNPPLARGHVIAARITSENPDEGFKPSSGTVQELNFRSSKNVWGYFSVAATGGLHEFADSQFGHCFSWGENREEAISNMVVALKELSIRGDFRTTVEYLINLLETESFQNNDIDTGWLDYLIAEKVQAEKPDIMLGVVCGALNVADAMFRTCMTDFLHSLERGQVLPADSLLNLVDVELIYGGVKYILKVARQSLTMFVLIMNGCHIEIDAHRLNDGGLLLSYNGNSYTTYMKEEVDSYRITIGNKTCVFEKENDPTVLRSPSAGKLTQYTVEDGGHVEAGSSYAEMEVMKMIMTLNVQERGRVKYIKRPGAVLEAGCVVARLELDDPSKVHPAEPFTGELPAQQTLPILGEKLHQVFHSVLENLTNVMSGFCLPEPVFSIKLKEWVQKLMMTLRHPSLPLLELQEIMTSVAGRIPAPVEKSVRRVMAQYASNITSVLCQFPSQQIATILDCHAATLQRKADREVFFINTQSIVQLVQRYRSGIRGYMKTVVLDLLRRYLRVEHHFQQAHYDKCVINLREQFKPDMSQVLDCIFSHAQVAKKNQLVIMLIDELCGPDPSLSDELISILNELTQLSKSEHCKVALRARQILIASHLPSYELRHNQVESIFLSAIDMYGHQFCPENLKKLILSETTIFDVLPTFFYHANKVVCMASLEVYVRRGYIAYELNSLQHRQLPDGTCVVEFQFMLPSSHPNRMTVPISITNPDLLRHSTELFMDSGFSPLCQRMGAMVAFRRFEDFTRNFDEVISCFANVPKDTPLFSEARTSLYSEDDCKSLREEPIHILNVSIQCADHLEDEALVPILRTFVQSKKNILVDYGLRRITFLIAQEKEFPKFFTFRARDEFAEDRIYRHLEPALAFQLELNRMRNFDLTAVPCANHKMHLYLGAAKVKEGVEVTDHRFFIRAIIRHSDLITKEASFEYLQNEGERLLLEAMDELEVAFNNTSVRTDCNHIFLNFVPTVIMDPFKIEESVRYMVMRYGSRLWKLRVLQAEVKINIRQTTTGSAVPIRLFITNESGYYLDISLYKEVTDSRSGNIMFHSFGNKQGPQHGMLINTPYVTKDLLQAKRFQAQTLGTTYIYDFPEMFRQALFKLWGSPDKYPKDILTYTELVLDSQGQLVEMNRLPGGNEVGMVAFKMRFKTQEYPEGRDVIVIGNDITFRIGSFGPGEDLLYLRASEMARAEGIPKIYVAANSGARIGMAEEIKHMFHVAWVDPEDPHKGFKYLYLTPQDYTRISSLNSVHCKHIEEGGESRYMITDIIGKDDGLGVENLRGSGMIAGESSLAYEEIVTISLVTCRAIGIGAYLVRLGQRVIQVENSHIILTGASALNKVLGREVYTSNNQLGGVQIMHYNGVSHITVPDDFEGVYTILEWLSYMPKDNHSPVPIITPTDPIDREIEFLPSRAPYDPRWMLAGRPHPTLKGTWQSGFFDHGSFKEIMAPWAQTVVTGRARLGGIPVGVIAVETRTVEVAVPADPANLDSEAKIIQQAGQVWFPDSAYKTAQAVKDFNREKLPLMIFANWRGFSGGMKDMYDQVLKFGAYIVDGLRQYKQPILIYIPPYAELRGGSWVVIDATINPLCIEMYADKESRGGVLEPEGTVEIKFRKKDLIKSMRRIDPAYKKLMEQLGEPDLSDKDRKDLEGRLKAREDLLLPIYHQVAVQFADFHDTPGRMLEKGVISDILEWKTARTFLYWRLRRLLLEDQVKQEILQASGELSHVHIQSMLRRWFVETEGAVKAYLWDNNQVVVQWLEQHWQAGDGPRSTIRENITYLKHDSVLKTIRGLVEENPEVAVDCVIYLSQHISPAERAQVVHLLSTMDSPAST

Row | IC50 | Compound
1 | 753 nM | CC(=O)N[C@@H](C)c1ccc(O[C@@H]2CCN(c3nc(N(C)CC(C)O)ncc3Cl)C2)cc1 (some centres unmarked) [Example 8.185]
2 | 204 nM | CC(=O)N[C@@H](C)c1ccc(O[C@@H]2CCN(c3nc(N4CCOC(C)C4)ncc3Cl)C2)cc1 (some centres unmarked) [Example 8.186]
3 | 319 nM | CC(=O)N[C@@H](C)c1ccc(O[C@@H]2CCN(c3nc(N4CCCC(F)(F)C4)ncc3Cl)C2)cc1 [Example 8.189]
4 | 41 nM | CC(=O)N[C@@H](C)c1ccc(O[C@@H]2CCN(c3nc(N(C)C4CCC4)ncc3F)C2)cc1 [Example 8.190]
5 | 229 nM | COC1CCN(c2ncc(F)c(N3CC[C@@H](Oc4ccc([C@H](C)NC(C)=O)cc4)C3)n2)CC1 [Example 8.193]
6 | 128 nM | CC(=O)N[C@@H](C)c1ccc(O[C@@H]2CCN(c3nc(N4CCC(C)(C)C4)ncc3F)C2)cc1 [Example 8.194]
7 | 393 nM | CC(=O)N[C@@H](C)c1ccc(O[C@@H]2CCN(c3ccnc(N(C)C4CCOCC4)n3)C2)cc1 [Example 8.195]
8 | 334 nM | CC(=O)N[C@@H](C)c1ccc(O[C@@H]2CCN(c3ccnc(N(C)C[C@@H]4CCCO4)n3)C2)cc1 [Example 8.203]
9 | 945 nM | COC[C@H](C)N(C)c1nccc(N2CC[C@@H](Oc3ccc([C@H](C)NC(C)=O)cc3)C2)n1 [Example 8.204]
10 | 75 nM | CC(=O)N[C@@H](C)c1ccc(O[C@@H]2CCN(c3ccnc(N(C)CCC(F)(F)F)n3)C2)cc1 [Example 8.206]
11 | 99 nM | CC(=O)N[C@@H](C)c1ccc(O[C@@H]2CCN(c3ccnc(N4CCC(F)(F)CC4)n3)C2)cc1 [Example 8.207]
12 | 714 nM | CC(=O)N[C@@H](C)c1ccc(O[C@@H]2CCN(c3nc(N4CCOCC4C)ncc3Cl)C2)cc1 (some centres unmarked) [Example 8.210]
13 | 506 nM | CC(=O)N[C@@H](C)c1ccc(O[C@@H]2CCN(c3nc(N(CCO)C4CC4)ncc3Cl)C2)cc1 [Example 8.211]
14 | 998 nM | CC(=O)N[C@@H](C)c1ccc(O[C@@H]2CCN(c3ncnc(N4CCc5nocc5C4)c3F)C2)cc1 [Example 8.212]
15 | 360 nM | COC1CCN(c2ncnc(N3CC[C@@H](Oc4ccc([C@H](C)NC(C)=O)cc4)C3)c2F)CC1 [Example 8.213]
16 | 865 nM | CC(=O)N[C@@H](C)c1ccc(O[C@@H]2CCN(c3ccnc(N4CCC(C)(O)C4)n3)C2)cc1 (some centres unmarked) [Example 8.214]
17 | 182 nM | CC(=O)N[C@@H](C)c1ccc(O[C@@H]2CCN(c3nc(N4CCCOCC4)ncc3Cl)C2)cc1 [Example 8.220]
18 | 269 nM | CC(=O)N[C@@H](C)c1ccc(O[C@@H]2CCN(c3nc(N(C)C4CCOCC4)ncc3Cl)C2)cc1 [Example 8.221]
19 | 150 nM | CC(=O)N[C@@H](C)c1ccc(O[C@@H]2CCN(c3nc(N4CC(F)(F)C(F)(F)C4)ncc3Cl)C2)cc1 [Example 8.222]
20 | 199 nM | COC[C@@H](C)N(C)c1ncc(Cl)c(N2CC[C@@H](Oc3ccc([C@H](C)NC(C)=O)cc3)C2)n1 [Example 8.225]
21 | 898 nM | CO[C@@H]1CCN(c2ncnc(N3CC[C@@H](Oc4ccc([C@H](C)NC(C)=O)cc4)C3)c2F)C1 [Example 8.234]
22 | 749 nM | CC(=O)N[C@@H](C)c1ccc(O[C@@H]2CCN(c3ncnc(N4CC(C)(O)C4)c3F)C2)cc1 [Example 8.237]
23 | 534 nM | CC(=O)N[C@@H](C)c1ccc(O[C@@H]2CCN(c3nc(N4CCc5nocc5C4)ncc3F)C2)cc1 [Example 8.238]
24 | 594 nM | CC(=O)N[C@@H](C)c1ccc(O[C@@H]2CCN(c3nc(N4CC[C@H](F)C4)ncc3Cl)C2)cc1 [Example 8.241]
25 | 559 nM | CC(=O)N[C@@H](C)c1ccc(O[C@@H]2CCN(c3ccnc(N4CCCC4(C)C)n3)C2)cc1 [Example 8.243]
26 | 680 nM | CC(=O)N[C@@H](C)c1ccc(O[C@@H]2CCN(c3ccnc(N4CCc5nocc5C4)n3)C2)cc1 [Example 8.246]

The remaining lines, values behind:

Row | Compound | IC50
27 | CC(=O)N[C@@H](C)c1ccc(O[C@@H]2CCN(c3nc(N4CCC(F)(F)CC4)ncc3Cl)C2)cc1 [Example 8.187] | 220 nM
28 | COC[C@@H]1CCN(c2ncc(Cl)c(N3CC[C@@H](Oc4ccc([C@H](C)NC(C)=O)cc4)C3)n2)C1 [Example 8.188] | 118 nM
29 | CC(=O)N[C@@H](C)c1ccc(O[C@@H]2CCN(c3nc(N4CCC(C)(C)C4)ncc3Cl)C2)cc1 [Example 8.191] | 222 nM
30 | CC(=O)N[C@@H](C)c1ccc(O[C@@H]2CCN(c3nc(N(C)CCOC(C)(C)C)ncc3Cl)C2)cc1 [Example 8.192] | 640 nM
31 | CC(=O)N[C@@H](C)c1ccc(O[C@@H]2CCN(c3ccnc(N4CC=CC4)n3)C2)cc1 [Example 8.196] | 277 nM
32 | COC[C@H]1CCCN1c1ncnc(N2CC[C@@H](Oc3ccc([C@H](C)NC(C)=O)cc3)C2)c1F [Example 8.197] | 733 nM
33 | CC(=O)N[C@@H](C)c1ccc(O[C@@H]2CCN(c3ncnc(N4CCOC(C(F)(F)F)C4)c3F)C2)cc1 (some centres unmarked) [Example 8.198] | 549 nM
34 | CC(=O)N[C@@H](C)c1ccc(O[C@@H]2CCN(c3ncnc(N4CCC(C)(C)C4)c3F)C2)cc1 [Example 8.199] | 85 nM
35 | CC(=O)N[C@@H](C)c1ccc(O[C@@H]2CCN(c3ncnc(N4CC(C)C4)c3F)C2)cc1 [Example 8.200] | 354 nM
36 | CC(=O)N[C@@H](C)c1ccc(O[C@@H]2CCN(c3ncnc(N4CCC(CO)C4)c3F)C2)cc1 (some centres unmarked) [Example 8.201] | 294 nM
37 | CC(=O)N[C@@H](C)c1ccc(O[C@@H]2CCN(c3ncnc(N4CCC(CO)C4)c3F)C2)cc1 (some centres unmarked) [Example 8.202] | 721 nM
38 | CC(=O)N[C@@H](C)c1ccc(O[C@@H]2CCN(c3nc(N(C)CCO)ncc3F)C2)cc1 [Example 8.205] | 607 nM
39 | CC(=O)N[C@@H](C)c1ccc(O[C@@H]2CCN(c3ccnc(N4CCCC(F)(F)C4)n3)C2)cc1 [Example 8.208] | 172 nM
40 | CC(=O)N[C@@H](C)c1ccc(O[C@@H]2CCN(c3nc(N4CCOC(C)(C)C4)ncc3Cl)C2)cc1 [Example 8.209] | 351 nM
41 | CC(=O)N[C@@H](C)c1ccc(O[C@@H]2CCN(c3nc(N(C)CCOC(C)(C)C)ncc3F)C2)cc1 [Example 8.215] | 719 nM
42 | CC(=O)N[C@@H](C)c1ccc(O[C@@H]2CCN(c3nc(N4CCCOCC4)ncc3F)C2)cc1 [Example 8.216] | 125 nM
43 | CC(=O)N[C@@H](C)c1ccc(O[C@@H]2CCN(c3nc(N4CC(F)(F)C(F)(F)C4)ncc3F)C2)cc1 [Example 8.217] | 145 nM
44 | CC(=O)N[C@@H](C)c1ccc(O[C@@H]2CCN(c3nc(N4CCCC(F)(F)C4)ncc3F)C2)cc1 [Example 8.218] | 140 nM
45 | CC(=O)N[C@@H](C)c1ccc(O[C@@H]2CCN(c3nc(N4CC(C)C4)ncc3Cl)C2)cc1 [Example 8.219] | 355 nM
46 | CC(=O)N[C@@H](C)c1ccc(O[C@@H]2CCN(c3nc(N(C)CC(C)C)ncc3Cl)C2)cc1 [Example 8.223] | 103 nM
47 | CC(=O)N[C@@H](C)c1ccc(O[C@@H]2CCN(c3nc(N4CCOC(C)(C)C4)ncc3F)C2)cc1 [Example 8.224] | 170 nM

Row | Compound | IC50
48 | CC(=O)N[C@@H](C)c1ccc(O[C@@H]2CCN(c3nc(N4CCC5(CC5)C4)ncc3F)C2)cc1 [Example 8.226] | 52 nM
49 | COC[C@H]1CCCN1c1nccc(N2CC[C@@H](Oc3ccc([C@H](C)NC(C)=O)cc3)C2)n1 [Example 8.228] | 619 nM
50 | COC1CCN(c2nccc(N3CC[C@@H](Oc4ccc([C@H](C)NC(C)=O)cc4)C3)n2)CC1 [Example 8.229] | 641 nM
51 | CC(=O)N[C@@H](C)c1ccc(O[C@@H]2CCN(c3ccnc(N4CC[C@H](F)C4)n3)C2)cc1 [Example 8.230] | 485 nM
52 | CC(=O)N[C@@H](C)c1ccc(O[C@@H]2CCN(c3ncnc(N4CC(F)(F)C(F)(F)C4)c3F)C2)cc1 [Example 8.231] | 127 nM
53 | CC(=O)N[C@@H](C)c1ccc(O[C@@H]2CCN(c3ncnc(N(C)C4CCC4)c3F)C2)cc1 [Example 8.232] | 60 nM
54 | CC(=O)N[C@@H](C)c1ccc(O[C@@H]2CCN(c3ncnc(N4CCCC4C)c3F)C2)cc1 (some centres unmarked) [Example 8.233] | 153 nM
55 | CC(=O)N[C@@H](C)c1ccc(O[C@@H]2CCN(c3ncnc(N4CCC5(CC5)C4)c3F)C2)cc1 [Example 8.235] | 45 nM
56 | CC(=O)N[C@@H](C)c1ccc(O[C@@H]2CCN(c3ncnc(N(C)C4CCCOC4)c3F)C2)cc1 (some centres unmarked) [Example 8.236] | 314 nM
57 | CC(=O)N[C@@H](C)c1ccc(O[C@@H]2CCN(c3nc(N(C)CC(C)O)ncc3F)C2)cc1 (some centres unmarked) [Example 8.239] | 487 nM
58 | CCN(CCO)c1ncc(F)c(N2CC[C@@H](Oc3ccc([C@H](C)NC(C)=O)cc3)C2)n1 [Example 8.240] | 215 nM
59 | COCCCN(C)c1nccc(N2CC[C@@H](Oc3ccc([C@H](C)NC(C)=O)cc3)C2)n1 [Example 8.242] | 459 nM
60 | CC(=O)N[C@@H](C)c1ccc(O[C@@H]2CCN(c3nc(N4CC=CC4)ncc3F)C2)cc1 [Example 8.244] | 165 nM
61 | CC(=O)N[C@@H](C)c1ccc(O[C@@H]2CCN(c3nc(N4CC[C@H](O)C4)ncc3F)C2)cc1 [Example 8.245] | 937 nM
62 | CC(=O)N[C@@H](C)c1ccc(O[C@@H]2CCN(c3nc(N(C)CCC(F)(F)F)ncc3Cl)C2)cc1 [Example 8.247] | 110 nM
63 | CC(=O)N[C@@H](C)c1ccc(O[C@@H]2CCN(c3nc(N(C)CCO)ncc3Cl)C2)cc1 [Example 8.248] | 1040 nM
64 | CC(=O)N[C@@H](C)c1ccc(O[C@@H]2CCN(c3ncnc(N4CCCC4(C)C)c3F)C2)cc1 [Example 8.250] | 358 nM
65 | CC(=O)N[C@@H](C)c1ccc(O[C@@H]2CCN(c3ncnc(N4CCC(F)(F)CC4)c3F)C2)cc1 [Example 8.251] | 97 nM
66 | COC1CCCN(c2ncnc(N3CC[C@@H](Oc4ccc([C@H](C)NC(C)=O)cc4)C3)c2F)C1 (some centres unmarked) [Example 8.252] | 1060 nM
67 | CC(=O)N[C@@H](C)c1ccc(O[C@@H]2CCN(c3ccnc(N(C)C4CCC4)n3)C2)cc1 [Example 8.253] | 79 nM
68 | CC(=O)N[C@@H](C)c1ccc(O[C@@H]2CCN(c3nc(N4CCCC4C)ncc3F)C2)cc1 (some centres unmarked) [Example 8.254] | 60 nM
